# In patent US20050215544A1, “Methods of treating HIV infection” (priority 2004, published 2005):
# Columns and labels:
# [1] = system: HIV-1 LAI; assay: Two-drug combination antiviral assay with Compound 1 (combination indices, Chou and Rideout); assay type: cell-based; conditions: combination with Compound 1; for Combination Indices at 50% HIV Inhibition (Confidence Interval) / Combination Indices at 75% HIV Inhibition (Confidence Interval) / Combination Indices at 90% HIV Inhibition (Confidence Interval): 95% CI in parenthesis; for Overall Result of two-drug combination: all ratios and inhibition levels
# Procedure: (§1) Virus and cell lines. The T-cell lines, MT-2 and PM-1 were obtained through the AIDS Research and Reference Reagent Program, NIAID, and were contributed by Dr. D. Richman and Dr. R. Gallo, respectively. Both cell lines were cultured in RPMI 1640 medium supplemented with 10% fetal bovine serum, 2 mM L-glutamine and sub-cultured twice a week. The LAI strain of HIV-1 was obtained from the Fred Hutchinson Cancer Research Center, and the Bal strain was from NIH. Both virus stocks were amplified and titered in MT-2 cells (LAI) and PM-1 cells (Bal) using a virus infectivity assay.
# (§2) Drug Susceptibility and Cytotoxicity Assays. For drug susceptibility assays, MT-2 cells were infected with HIV-1 LAI (or PM-1 cells with HIV-1 Bal) at an MOI of 0.005, and seeded into 96-well microtiter plates ([…] cells/ml) containing serial dilutions of test compounds. […] Each drug ratio consisted of an array of 3-fold serial dilutions, and was performed in quadruplicate. The plates were incubated at 37° C./5% CO2. The MT-2 cells infected with HIV-1 LAI were incubated for 5 days. On day-five post-infection, 20 μl from each well was harvested and quantitated by a reverse transcriptase (RT) assay, or in samples involving non-nucleoside RT inhibitors, an MTS assay. The PM-1 cells infected with HIV-1 Bal and used for studying the combinations with CCR5 inhibitors were incubated for six days. On day-six post-infection, 20 μl from each well was harvested, 20- and 50-fold diluted and quantitated by p24 assay. Cytotoxicity assays were performed using uninfected cells, exposed to the same drug combinations, and incubated for six days. Cell viability was determined by an MTS assay. The CC50 values were calculated by using the exponential form of the median effect equation as mentioned below for calculation of EC50.
# Analysis of Drug Combination Effects. For determination of CI values, drugs were diluted in a fixed ratio and multiple ratios were analyzed. The drug serial dilutions spanned a range of concentrations near the EC50 value of each compound, so that equivalent antiviral activities could be compared. Concentration-response curves were estimated for each individual drug and every combination using the median-effect equation. The equation was fit using a nonlinear regression routine (Proc Nlin) in PC SAS version 8.01 (SAS Institute Inc., SAS Version 8.01, Cary, NC: SAS Institute Inc., 1990).
# (§3) In this equation, Fa stands for “fraction affected,” and represents the fraction of the viral load that has been inactivated. […] ED50 is drug concentration that is expected to reduce the amount of virus by 50%, and m is a parameter that reflects the slope of the concentration-response curve.
# To assess antiviral effects of different drug combination treatments, combination indices (CIs) were calculated according to Chou and Rideout. The combination index was computed as CI=[D]1/[Dm]1+[D]2/[Dm]2
# In this equation [Dm]1 and [Dm]2 are the concentrations of drugs that would individually produce a specific level of effect, while [D]1 and [D]2 are the concentrations of drugs in combination that would produce the same level of effect.
# Theoretically, additivity is implied if the CI is equal to one, synergy if the CI is less than one, and antagonism if the CI is greater than one. […] At best, we can construct a range that contains the likely values for the CI, given the noise in the data. In this report, these ranges are reported in parentheses next to each point estimate of the CI. […] If the range fell entirely above 1.0, we would infer antagonistic behavior. If the range were to include 1.0, we would infer additivity.
# [2] = system: HIV-1 LAI; assay: microbe, parasite or virus in culture
# Procedure: as §1, §2, §3
# In carrying out the combination experiments below, the EC50 for Compound 1 and each comparator compound was determined during the course of each study, and used in the subsequent data analysis.
# [3] = EC50 ratio 1:1 (Compound 1 to comparator)
# [4] = EC50 ratio 1:2.5 (Compound 1 to comparator)
# [5] = EC50 ratio 2.5:1 (Compound 1 to comparator)
# [6] = Human immunodeficiency virus 1, MT2, 120 h
SMILES,"EC50 [2, 6]","EC50 ([2]; MT-2 cells infected with HIV-1 LAI, MOI 0.005, 5 days, single drug)","Combination Indices at 50% HIV Inhibition (Confidence Interval) [1, 3]","Combination Indices at 75% HIV Inhibition (Confidence Interval) [1, 3]","Combination Indices at 90% HIV Inhibition (Confidence Interval) [1, 3]","Combination Indices at 50% HIV Inhibition (Confidence Interval) [1, 4]","Combination Indices at 75% HIV Inhibition (Confidence Interval) [1, 4]","Combination Indices at 90% HIV Inhibition (Confidence Interval) [1, 4]","Combination Indices at 50% HIV Inhibition (Confidence Interval) [1, 5]","Combination Indices at 75% HIV Inhibition (Confidence Interval) [1, 5]","Combination Indices at 90% HIV Inhibition (Confidence Interval) [1, 5]",Overall Result of two-drug combination [1],Overall Result of two-drug combination ([1]; listed as efavirenz),Overall Result of two-drug combination ([1]; listed as nevirapine)
Cc1ccnc2c1NC(=O)c1cccnc1N2C1CC1 [Nevirapine],127 nM,–,"0.13 (0.11, 0.16)","0.17 (0.13, 0.22)","0.24 (0.14, 0.33)","0.32 (0.23, 0.40)","0.72 (0.45, 0.99)","1.69 (0.63, 2.75)","0.37 (0.29, 0.44)","0.76 (0.54, 0.98)","1.60 (0.86, 2.34)",Additive-,–,additive to synergistic
Cc1cn([C@H]2C=C[C@@H](CO)O2)c(=O)[nH]c1=O [Stavudine],318 nM,–,"0.25 (0.18, 0.33)","0.53 (0.32, 0.74)","1.12 (0.38, 1.86)","0.14 (0.10, 0.19)","0.22 (0.13, 0.32)","0.36 (0.10, 0.62)","0.28 (0.24, 0.32)","0.39 (0.32, 0.47)","0.55 (0.38, 0.73)",Moderate-,–,–
Nc1nc(NC2CC2)c2ncn([C@H]3C=C[C@@H](CO)C3)c2n1 [Abacavir],528 nM,–,"0.18 (0.13, 0.23)","0.47 (0.30, 0.64)","1.23 (0.52, 1.94)","0.34 (0.27, 0.41)","0.64 (0.45, 0.83)","1.22 (0.65, 1.79)","0.23 (0.19, 0.28)","0.42 (0.30, 0.53)","0.75 (0.42, 1.07)",Additive-,–,–
C[C@H](Cn1cnc2c(N)ncnc21)OCP(=O)(O)O [Tenofovir],–,13 nM,"0.11 (0.09, 0.13)","0.22 (0.17, 0.27)","0.54 (0.31, 0.76)","0.13 (0.11, 0.15)","0.23 (0.18, 0.28)","0.50 (0.30, 0.70)","0.16 (0.13, 0.19)","0.22 (0.17, 0.28)","0.38 (0.22, 0.54)",Synergistic,–,–
Cc1cn([C@H]2C[C@H](N=[N+]=[N-])[C@@H](CO)O2)c(=O)[nH]c1=O [Zidovudine],–,–,"0.30 (0.17, 0.42)","0.48 (0.20, 0.76)","0.78 (0.05, 1.51)","0.20 (0.16, 0.25)","0.30 (0.21, 0.40)","0.45 (0.22, 0.68)","0.04 (0.03, 0.04)","0.04 (0.03, 0.05)","0.04 (0.03, 0.05)",Synergistic,–,–

# More lines, main results first:
"EC50 [2, 6]","EC50 ([2]; MT-2 cells infected with HIV-1 LAI, MOI 0.005, 5 days, single drug)",SMILES,"Combination Indices at 50% HIV Inhibition (Confidence Interval) [1, 3]","Combination Indices at 75% HIV Inhibition (Confidence Interval) [1, 3]","Combination Indices at 90% HIV Inhibition (Confidence Interval) [1, 3]","Combination Indices at 50% HIV Inhibition (Confidence Interval) [1, 4]","Combination Indices at 75% HIV Inhibition (Confidence Interval) [1, 4]","Combination Indices at 90% HIV Inhibition (Confidence Interval) [1, 4]","Combination Indices at 50% HIV Inhibition (Confidence Interval) [1, 5]","Combination Indices at 75% HIV Inhibition (Confidence Interval) [1, 5]","Combination Indices at 90% HIV Inhibition (Confidence Interval) [1, 5]",Overall Result of two-drug combination [1],Overall Result of two-drug combination ([1]; listed as efavirenz),Overall Result of two-drug combination ([1]; listed as nevirapine)
0.6 nM,–,O=C1Nc2ccc(Cl)cc2[C@@](C#CC2CC2)(C(F)(F)F)O1 [Efavirenz],"0.93 (0.74, 1.12)","0.70 (0.51, 0.90)","0.57 (0.32, 0.82)","0.71 (0.58, 0.85)","0.85 (0.62, 1.08)","1.10 (0.64, 1.56)","0.82 (0.62, 1.02)","0.83 (0.55, 1.12)","0.89 (0.41, 1.36)",Additive-,additive to synergistic,–
644 nM,–,O=c1[nH]cnc2c1ncn2[C@H]1CC[C@@H](CO)O1 [Didanosine],"0.91 (0.74, 1.09)","0.88 (0.65, 1.11)","0.88 (0.52, 1.24)","0.22 (0.19, 0.25)","0.18 (0.14, 0.22)","0.16 (0.10, 0.21)","1.02 (0.83, 1.22)","0.96 (0.70, 1.21)","0.91 (0.53, 1.29)",Additive-,–,–
30 nM,–,Nc1ccn([C@@H]2CS[C@H](CO)O2)c(=O)n1 [Lamivudine],"0.57 (0.41, 0.73)","0.73 (0.44, 1.02)","1.00 (0.37, 1.62)","0.17 (0.13, 0.21)","0.33 (0.23, 0.43)","0.70 (0.33, 1.06)","0.18 (0.13, 0.22)","0.38 (0.26, 0.49)","0.85 (0.40, 1.29)",–,–,–
12 nM,–,Nc1ccn([C@H]2CC[C@@H](CO)O2)c(=O)n1 [Zalcitabine],"0.19 (0.15, 0.23)","0.35 (0.26, 0.45)","0.75 (0.40, 1.09)","0.38 (0.31, 0.45)","0.37 (0.28, 0.47)","0.42 (0.24, 0.61)","0.22 (0.18, 0.25)","0.28 (0.22, 0.34)","0.38 (0.24, 0.52)",Synergistic,–,–
6 nM,–,Cc1c(O)cccc1C(=O)N[C@@H](CSc1ccccc1)[C@H](O)CN1C[C@H]2CCCC[C@H]2C[C@H]1C(=O)NC(C)(C)C [Nelfinavir],"0.38 (6.31, 0.46)","0.56 (0.47, 0.72)","0.83 (0.47, 1.18)","0.56 (0.46, 0.65)","0.89 (0.68, 1.10)","1.43 (0.89, 1.97)","0.17 (0.13, 0.21)","0.40 (0.29, 0.52)","0.95 (0.49, 1.42)",Additive-,–,–
